Source: ChEMBL document CHEMBL4811297, “Low cytotoxic quinoline-4-carboxylic acids derived from vanillin precursors as potential human dihydroorotate dehydrogenase inhibitors” (Bioorg Med Chem Lett, 2021)
pIC50: −log10 of the molar value.

Legend:
[1] = Lipophilicity, log D of compound at pH 7.4 in octanol/phosphate buffer measured by shake flask method; assay type: physicochemical
HaCaT = assay: Antiproliferative activity against human HaCaT cells assessed as inhibition of cell proliferation; assay type: cell-based
[2] = molecular target: Dihydroorotate dehydrogenase (quinone), mitochondrial (Homo sapiens, UniProt Q02127); assay: Inhibition of human DHODH
Chain of Dihydroorotate dehydrogenase (quinone), mitochondrial (Q02127 whole entry): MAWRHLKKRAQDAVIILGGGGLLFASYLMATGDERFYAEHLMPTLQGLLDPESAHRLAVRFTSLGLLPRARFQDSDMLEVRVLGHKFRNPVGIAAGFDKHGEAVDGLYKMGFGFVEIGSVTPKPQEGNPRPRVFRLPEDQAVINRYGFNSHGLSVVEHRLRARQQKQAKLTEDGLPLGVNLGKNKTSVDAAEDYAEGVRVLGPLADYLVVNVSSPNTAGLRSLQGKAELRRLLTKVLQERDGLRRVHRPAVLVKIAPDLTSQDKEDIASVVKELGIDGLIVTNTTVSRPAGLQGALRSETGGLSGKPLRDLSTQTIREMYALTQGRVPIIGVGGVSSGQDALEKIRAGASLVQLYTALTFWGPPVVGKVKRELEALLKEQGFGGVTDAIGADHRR

SMILES | logD [1] | pIC50 (HaCaT) | pIC50 [2]
COc1cc(-c2cc(C(=O)O)c3ccccc3n2)ccc1OCC(=O)Nc1cccc(Cl)c1 | 2.3 | 3.72 | 6.30
COc1cc(-c2cc(C(=O)O)c3ccccc3n2)ccc1OCC(=O)Nc1cccc(C(F)(F)F)c1 | 1.3 | 3.80 | 6.30
COc1cc(-c2cc(C(=O)O)c3ccccc3n2)ccc1OCC(=O)NCc1cccs1 | 0 | < 3.52 | 5.51
COc1cc(-c2cc(C(=O)O)c3ccccc3n2)ccc1OCC(=O)NCc1ccco1 | -0.3 | < 3.52 | 6.00
COc1cc(-c2cc(C(=O)O)c3ccccc3n2)ccc1OCC(=O)Nc1ccc(Cl)cc1 | 1.5 | < 3.52 | 6.30
COc1cc(-c2cc(C(=O)O)c3ccccc3n2)ccc1OCC(=O)Nc1cccc(F)c1 | 1.6 | 3.83 | 5.68
COc1cc(-c2cc(C(=O)O)c3ccccc3n2)ccc1OCC(=O)Nc1cccc(C)c1 | 1.5 | 3.65 | 5.72
COc1cc(-c2cc(C(=O)O)c3ccccc3n2)ccc1OCC(=O)NC1CCCCC1 | 0.8 | < 3.52 | 5.77
COc1cc(-c2cc(C(=O)O)c3ccccc3n2)ccc1OCC(=O)NCc1ccccc1 | 0.4 | < 3.52 | 5.43
COc1cc(-c2cc(C(=O)O)c3ccccc3n2)ccc1OCC(=O)Nc1ccccc1C(F)(F)F | 1.3 | 3.99 | 6.52
COc1cc(-c2cc(C(=O)O)c3ccccc3n2)ccc1OCC(=O)Nc1ccc(C)cc1 | 1.2 | < 3.52 | 5.42
COc1cc(-c2cc(C(=O)O)c3ccccc3n2)ccc1OCC(=O)Nc1ccccc1Cl | 1.6 | 3.68 | 5.89
COc1cc(-c2cc(C(=O)O)c3ccccc3n2)ccc1OCC(=O)Nc1ccccc1F | 0.9 | 3.79 | 6.30
COc1cc(-c2cc(C(=O)O)c3ccccc3n2)ccc1OCC(=O)Nc1ccc(C(F)(F)F)cc1 | 1.6 | 3.82 | 5.62
CCCCCCNC(=O)COc1ccc(-c2cc(C(=O)O)c3ccccc3n2)cc1OC | 1 | < 3.52 | 5.57
COc1cc(-c2cc(C(=O)O)c3ccccc3n2)ccc1OCC(=O)Nc1ccccc1 | 0.7 | < 3.52 | 5.41
COc1cc(-c2cc(C(=O)O)c3ccccc3n2)ccc1OCC(=O)Nc1ccc(F)cc1 | 1.1 | 3.54 | 5.80
COc1cc(-c2cc(C(=O)O)c3ccccc3n2)ccc1OCC(=O)Nc1ccccc1C | 0.8 | 3.64 | 5.23
COc1cc(-c2cc(C(=O)O)c3ccccc3n2)ccc1OCC(=O)NCc1cccnc1 | -0.8 | < 3.52 | 6.15
COc1cc(-c2cc(C(=O)O)c3ccccc3n2)ccc1OCC(=O)NC12CC3CC(CC(C3)C1)C2 | 1 | 3.74 | 5.77
